Positions of bridges follow the written chain, without caps; N, C: chain ends. No end group written: not given here.
How the values were obtained:
neutrophils [1] = assay: Ex vivo human skin migration assay (IgA-coated beads injected in the dermis); type: cell-based; conditions: full thickness human skin grafts; peptide 1 μg/mL, pre-incubation 20 min, 4°C; incubated overnight (24 h) at 37°C; fluorescence microscopy; three independent experiments in duplicate; Fig. 4
From the text: To mimic blocking of neutrophil migration toward aberrant IgA‐antigen complexes in the skin, an ex vivo migration assay was established. […] No influx toward BSA‐coated beads was observed, whereas massive influx of neutrophils toward the injected IgA‐coated beads was observed (Fig 4A).
Figure 4 Peptide mimetics block neutrophil migration and penetrate the dermis in an ex vivo human skin model. Migration of green‐fluorescent neutrophils to BSA‐ (left panel) or IgA‐ (right panel) coated beads (indicated with circles) in the dermis of ex vivo skin explants (A). Migration of green‐fluorescent neutrophils to IgA‐coated beads (indicated with circles) after pre‐incubation with non‐blocking peptide FcαRI9‐ox (B), linear peptides (C) or cyclic CLIPS‐peptides (D). Images are representative of three independent experiments, performed in duplicate. Scale bar = 250 μm. Images are 10× magnified.
For ex vivo human skin migration assays, full thickness mammary skin grafts (epidermis and dermis) were placed in an ex vivo tissue incubation chamber with the dermis face up 6, 49. IgA‐coated beads were pre‐incubated with FcαRI‐peptides (1 μg/mL, 20 min, 4°C) and injected intracutaneously via the dermis. BSA‐coated beads were used for control. Next, PKH‐67 labeled neutrophils (4 × 10^6 cells/well) were added on the dermis. Alternatively, IgA‐coated beads were injected intracutaneously and PKH‐67 labeled neutrophils (4 × 10^6 cells/well) that were pre‐incubated with IgA‐peptides (1 μg/mL, 20 min, 4°C) were added onto the dermis. Cells were supplemented with IFN‐γ to prevent early apoptosis (300 units/mL; Boehringer Ingelheim, Ingelheim am Rhein, Germany). Skin was incubated overnight at 37°C, after which biopsies of the injected skin were taken and snap frozen. Cryosections of 6 μm were analysed with a Nikon eclipse e800 (Nikon instruments Europe BV, Amsterdam, The Netherlands).

[2] = tested on: IgA binding to FcαRI (on neutrophils); assay: Ligand binding assay: neutrophil binding to IgA-coated plates; type: cell-based; conditions: peptide 1 μg/mL, pre-incubation 20 min, 4°C, calcein labeled human neutrophils 2.5 × 10^5 cells/well, 37°C, fluorimeter, three independent experiments in triplicates, Fig. 1
Procedure: Figure 1 Peptide mimetics inhibit IgA binding to FcαRI. Percentage of ligand binding between IgA and FcαRI (on neutrophils), either in the presence or absence of peptide mimetics. Fluorescently labelled human neutrophils, isolated from blood, were added to IgA‐coated plates, and the number of neutrophils attaching to the plate was measured with a fluorimeter. IgA binding to FcαRI was normalized to 100% (indicated with dotted line). Neutrophils or plates were pre‐incubated with either linear peptides (A) or cyclic CLIPS‐peptides (B) mimicking FcαRI‐sequences (white bars) or IgA‐sequences (black bars). Data are representative of three independent experiments, performed in triplicates. Mean is shown, error bars refer to SD (n = 3). Statistical analysis: ANOVA*p< 0.05, **p < 0.01.
Neutrophils were isolated from heparinized peripheral human blood from healthy donors after informed consent was given, using standard Lymphoprep (Axis‐shield, Dundee, Scotland) density gradient centrifugation. […]
Plates (Nunc‐ImmunoMaxiSorp™, Roskilde, Denmark) were coated with IgA, or BSA (as control) (10 μg/mL, 3 h, 37°C), washed and pre‐incubated with FcαRI‐peptides (1 μg/mL, 20 min, 4°C). […] Attached cells were lysed and fluorescence of supernatant was measured with a fluorimeter (485 nm excitation/520 nm emission filters; Fluostar Galaxy, BMG Labtechnologies, Offenburg, Germany), as measure of binding. […]

neutrophils [3] = assay: In vitro neutrophil migration to IgA-coated beads; type: cell-based, human; conditions: fluorimeter; for block of IgA-induced neutrophil migration (in words): oxidated or small cyclic peptides, 3 independent experiments in triplicates, Supporting Information Fig. 2
Procedure: Figure 3 Peptide mimetics block IgA‐induced migration in vitro. Percentage of migration of fluorescently labelled neutrophils to IgA‐coated beads, either in the presence or absence of peptide mimetics. The number of migrated neutrophils was determined with a fluorimeter. Neutrophil migration to IgA was normalized to 100% (dotted line). Neutrophils or beads were pre‐incubated with (A) linear or (B) cyclic peptides mimicking FcαRI‐sequences (white bars) or IgA‐sequences (black bars). Data are representative of three independent experiments, performed in triplicates. Mean ± SD is shown. Statistical analysis: ANOVA *p< 0.05, **p < 0.01.
(§1) In vitro migration assays were performed as previously described 4. All experiments were performed in triplo. Migration towards IL‐8 (30 ng/mL) was measured after pre‐incubating neutrophils with peptides (1 μg/mL) or anti‐IL‐8 blocking antibody (10 μg/mL, Pharmingen).
Supporting Information Figure 2 […]
Percentage of migration of fluorescently labelled neutrophil to IgA-coated beads, either in the presence or absence of peptide mimetics. The number of migrated neutrophils was determined with a fluorimeter. Neutrophil migration to IgA was normalized to 100% (dotted line). Neutrophils or beads were pre-incubated with (A) oxidated or (B) small cyclic peptides mimicking FcαRI-sequences (white bars) or IgA-sequences (black bars). Data are representative of 3 independent experiments, performed in triplicates. Mean ± SD of one representative experiment is shown. Statistical analysis: ANOVA

neutrophils [4] = assay: IL-8 induced chemotaxis of neutrophils; type: cell-based, human; conditions: IL-8 30 ng/mL; neutrophils pre-incubated with peptides 1 μg/mL; fluorimeter; three times in triplo; Supporting Information Fig. 3
Procedure: as §1
Supporting Information Figure 3 […]
medium IL-8anti-IL-8IgA1-linFcĮRI1-linFcĮRI9-ox
Number of fluorescently labelled neutrophils which migrated to IL-8 in a chemotaxis chamber, either in the presence or absence of peptide mimetics. The number of migrated neutrophils was determined with a fluorimeter. Neutrophil migration to IL-8 is indicated with a dotted line.
Medium and blocking IL-8 antibody (anti-IL-8) were used as controls. Experiments were performed three times in triplo. Mean ± SD of one representative experiments in triplo is shown.
Statistical analysis: ANOVA

| Substance | neutrophil migration to IgA-coated beads in ex vivo human skin (neutrophils [1]) | block of IgA-induced neutrophil migration (in words) (neutrophils [3]) | also measured |
| --- | --- | --- | --- |
| SSCVGHEALPLAFTCKT (also: sidechain bridge or staple (positions not given here)) [IgA7‐CLIPS] | fully abrogated |  |  |
| SSMVGHEALPLAFTQKT [IgA1‐lin] | completely blocked |  | blocking of neutrophil binding to IgA-coated wells [2]: approximately 50%; block of neutrophil migration to IgA-coated beads (neutrophils [3]; neutrophils or beads pre-incubated with peptides, three independent experiments in triplicates, Fig. 3): 60–80%; effect on IL-8 induced chemotaxis (neutrophils [4]): do not block |
| RYQAQCRIGHYRFC (disulfide 6-14 (inferred)) [FcαRI6‐ox] |  | do not block |  |
| GRYQAQCRIGHYRFCYSD (disulfide 7-15 (inferred)) [FcαRI9‐ox] | did not inhibit | do not block | effect on IL-8 induced chemotaxis (neutrophils [4]): do not block |
| YQACHYRFRC (also: sidechain bridge or staple (positions not given here)) [FcαRI5‐CLIPS] |  | do not block |  |
| SSCVGHEALPLAFTCKT (disulfide 3-15 (inferred)) [IgA7‐ox] |  | do not block |  |
| CHYRFRC (also: sidechain bridge or staple (positions not given here)) [FcαRI3‐CLIPS] |  | do not block |  |
| SCEALPLAFTCKT (also: sidechain bridge or staple (positions not given here)) [IgA3‐CLIPS] |  | do not block |  |
| SSMCGHEALPLAFCQKT (disulfide 4-14 (inferred)) [IgA6‐ox] |  | do not block |  |
| CEALPLAFTCKT (also: sidechain bridge or staple (positions not given here)) [IgA2‐CLIPS] |  | do not block |  |
